Data reported in US6867236B1, “Method of preventing of delaying the onset and progression of Alzheimer's disease and related disorders” (Duke University, priority 1994, dated 2005).

Test system: Alzheimer's disease
Test: Case-control study of sibships at high risk: odds ratios for age-adjusted risk of Alzheimer's disease with prior drug exposure (Cox proportional hazards models)
Type: in vivo, human
Conditions: for effect on risk of Alzheimer's disease in words: drug alone, orthogonal comparison with NSAIDs; for Odds ratio for risk of Alzheimer's disease: COL + AU, simple odds ratio
Experimental: Briefly, doubly affected sib pairs with Alzheimer's disease onset ages that differed by at least 3 years were studied, as were disease-discordant siblings whose unaffected sib(s) had survived at least 3 years beyond the onset age of the affected sib. Premorbid exposures to steroids, NSAIDs and other treatments were assessed for 186 subjects (91% response rate) by focused retrospective interviews using appropriate blinding and multiple informants when possible. Survival analysis methods were used to compare age-adjusted risk of Alzheimer's disease among sibs who had been exposed or unexposed, before onset, to glucocorticoids, aspirin, non-aspirin NSAIDs, and histamine H2 receptor blockers. […] The odds ratios for steroids, aspirin and non-aspirin NSAIDs fell within the related confidence interval from the prior twin study (Breitner, Neurology 44:227 (1994)).
Doubly affected sib pairs with Alzheimer's disease onset ages that differed by at least 3 years were studied, as were disease-discordant siblings whose unaffected sib(s) had survived at least 3 years beyond the onset age of the affected sib. Diagnoses and ages at onset of Alzheimer's disease were established by consideration of all relevant data, including extensive longitudinal observation, laboratory testing, and autopsy confirmation when available. Arthritis, peptic ulcer disease, and other non-neurological conditions were not considered when making these diagnoses. Subjects or their collateral informants received a letter, followed by a structured telephone interview, that investigated several common medical conditions (arthritis, diabetes, peptic ulcer disease) and treatments (glucocorticoids, nonsteroidal anti-inflammatories, including aspirin, acetaminophen, narcotic analgesics, insulin and oral hypoglycemic drugs, and histamine H2 blocking agents). The interview also sought timing and duration of exposure. The interviewers generally knew which subjects had Alzheimer's disease but were blinded to early- or late-affected status. The respondents were not made aware of the hypothesis under investigation. Collateral informants supplied data for the 107 subjects who had developed Alzheimer's disease. Collateral information was also sought for the remaining subjects; however, it is was necessary to rely on autobiographical data from 20 (26%).
Like dizygous twins, siblings share 50% of their genetic make-up on average. The relation of Alzheimer's disease onset and prior use of anti-inflammatory drugs was therefore studied in a sample of 186 sibs from 45 pedigrees ascertained for genetic linkage studies of late onset Alzheimer's disease (Pericak-Vance et al, Am. J. Hum. Genet. 48:1034 (1991)). The selected sibs were members of onset-discordant doubly affected pairs or disease-discordant pairs meeting criteria described above.
These differences and the association of Alzheimer's disease with the remaining exposures were investigated using Cox proportional hazards models (Cox, J. Roy. Stat. Soc. (Series B) 34:248-275 (1972)) in which the sample was first stratified by sibship. Table 2 reports odds ratios (o.r), the customary measure of risk associated with an exposure in case-control work. The o.r. is ordinarily calculated as the ratio of proportions exposed versus unexposed in the affected and unaffected groups; for conditions like Alzheimer's disease with age-dependent expression (Breitner et al, Am. J. Epidemiol. 128:536-548 (1988)), the o.r. is preferably calculated using proportional hazards or similar models which consider subjects' current age or age at death (i.e., censoring age), or age at onset of Alzheimer's disease. An o.r. of less than 1 implies reduced risk of disease with exposure. […] The apparent effect of both aspirin and NSAIDs increased with duration of exposure; the o.r. with use of NSAIDs for >1 yr. […]

[1] = Table 2, source of data COL + AU (collateral + autobiographical), stratified by sibship
[2] = Table 2, source of data COL only (collateral informants), stratified by sibship, exposure >=1 month
[3] = Table 3, orthogonal comparison, not stratified by sibship, no NSAIDs

| Structure (SMILES) | Odds ratio for age-adjusted risk of Alzheimer's disease [1] | Odds ratio for age-adjusted risk of Alzheimer's disease [2] | Odds ratio for age-adjusted risk of Alzheimer's disease [3] | effect on risk of Alzheimer's disease in words | Odds ratio for risk of Alzheimer's disease (Table 2, exposed 1-12 mo.) | Odds ratio for risk of Alzheimer's disease (Table 2, exposed >1 yr.) | estimated odds ratios (o.r.), age-adjusted risk of Alzheimer's disease (sibs exposed or unexposed before onset) |
| --- | --- | --- | --- | --- | --- | --- | --- |
| CC(=O)Nc1ccc(O)cc1 [Acetaminophen] | 0.104 | 0.157 | 0.192 | comparable but statistically inconclusive effect | – | – | – |
| CC(=O)Oc1ccccc1C(=O)O [Aspirin] | 0.343 | 0.349 | 0.508 | weak but similar effect to NSAIDs | 0.625 | 0.369 | 0.35 |
